Measurements: patent US12606773B2, “Ionizable cationic lipids” (Akagera Medicines, Inc., priority 2020, dated 2026)

Tests used:
[1] = LNP particle size and polydispersity (ZetaSizer); assay type: physicochemical; details: for Particle Size (nm): mCherry mRNA LNP, 50 mol % ICL, N/P 5, DSPC 10, cholesterol 38.5, PEG-DMG 1.5 mol %; for Polydispersity Index PDI / Particle Size (nm) Post-Freeze/Thaw: same LNPs; for Particle Size (nm) Post-Freeze/Thaw: Table 4, post freeze/thaw
Procedure: (§1) • 5. The number of wells used on each plate was counted and 4 was added to this number. For plate B, PBS was prepared with Ribogreen diluted 1:100. For example, for 40 wells, 44 was used as the number. 44×60 μL=2.64 mL Ribogreen solution needed, so that would be 2.61 mL PBS with 26.4 μL Ribogreen. • 6. For plate C, 2.61 mL Dissociation buffer and 26.4 uL Ribogreen was pipetted. • 7. Using a repeater pipette set for 60 μL, PBS+RiboGreen was added to each well on plate B and 60 μL Dissociation Buffer+Ribogreen to plate C. Both plates B and C were mixed on an orbital mixer (120 rpm) for 1 min. Plate B was placed in the dark for 15 min. Plate C was incubated at 37° C. in the dark for 10 min, followed by 5 min at RT. • 8. Both plates were read one after the other, using Ex. 465, Em. 530 nm • 9. Using the standard curve, the slope and intercept were calculated and by extrapolation the mRNA concentrations of the samples on plate B & C were calculated (average and std.dev) • 10. Percent encapsulation efficiency (% EE) by [mRNA] plate B/[mRNA] plate C×100 was calculated • 11. Total [mRNA] by taking [mRNA] plate C×dilution factor was calculated. B. LNP Particle Size • 1. […] C. LNP Zeta Potential • 1.

[2] = mRNA encapsulation efficiency by Ribogreen fluorescent binding dye; assay type: physicochemical; details: same LNPs; for % Encapsulation ± SD: Table 3; for Encapsulation Efficiency (%): Table 4
Procedure: A. mRNA Concentration and Relative Encapsulation Efficiency Determination by Fluorescent Binding Dye
• Materials: Ribogreen reagent (Thermo #11491), 3×96-well plates with lids, PBS, dissociation buffer (PBS with 10% DMSO and 1% (wt/wt) Zwittergent 3-14 (Sigma-Aldrich #693017), mRNA, general pipette tips & repeater pipette tips. • 1. 5 mL of 2 μg/mL mRNA stock were prepared in DPBS or PBS • 2. Diluted standards were prepared as follows in single wells in a 96-well plate (Plate A);
• 3. Using different wells in Plate A, samples were diluted to be within the standard curve, you'll need one well per sample. For example, if the approximate mRNA concentration should be ˜30 ug/mL in the sample, a 20× dilution was performed (Dilution Factor). (20 uL sample added to 380 μL PBS in a well). No lid was used on plate A. Samples were mixed by gentle pipetting up & down.
• 4. Two more plates, plates B & C were used. Using a multichannel pipettor, 60 μL of each standard 2 were pipetted into wells each (duplicate), and sample into 3 wells each (triplicate)
as §1

MutuDC1940 cells = test: Transfection efficiency of mCherry mRNA LNPs in murine dendritic cells; assay type: cell-based; details: LNPs 1 μg/mL, 24h
Procedure: A. Cell Propagation, Transfection, Harvesting and Staining Protocol
• 1. MutuDC1940 cells (ABM) were grown according to supplier's instructions in T75 flasks.
When required, they were plated at 180,000 cells/well into 24-well plate one day prior to transfection. • 2. LNPs were added in triplicate to each well at 1 μg/mL in 1 mL media and after 24h the cells were washed once with DPBS (VWR 02-0119-1000). • 3. 0.2 mL of DPBS (plus 5 mM EDTA, pH 7.4) was then added to facilitate detachment. • 4. The cells were placed at 37° C. for 3 min, until detached. • 5. 0.5 ml DPBS added to each well and the liquid transferred to a flow cytometry tube (Falcon 5 mL #352054) • 6. The tube was centrifuged at 1100 rpm for 3-5 min and the liquid poured off • 7. 100 μL of Zombie Violet (Biolegend) (diluted 1:500 in PBS) was added to each tube • 8. The tubes were gently tapped to resuspend cells and placed in the dark for 15 min at RT • 9. To the cells 0.5 mL of (paraformaldehyde 4% in PBS:DPBS 1:1) was added and the cells flicked gently to resuspend and put on ice for 30 min. Another 2 ml PBS was added. • 10. The cells were pelleted as above and resuspended in 0.5 mL DPBS with 5% BSA and placed in the fridge until needed. B. Cell Analysis • 1. Cells suspensions were analyzed by an Attune NxT flow cytometer using the VL1 and YL2 for live/dead and mCherry fluorescence signals respectively. Gating analysis was performed on FloJo software.

[3] = Accelerated oxidation with H2O2/Fe(III)Cl, main lipid peak by UHPLC-CAD; assay type: physicochemical; details: for stability under accelerated oxidation with hydrogen peroxide: compared to counterparts with a single methylene separating the two olefins; for % of parent lipid peak at time 0, 72 h / % of parent lipid peak at time 0, 24 h / % of parent lipid peak at time 0, 48 h: 1% H2O2, 100 μM Fe(III)Cl, 37° C.
Procedure: Individual lipid stocks (10 mM) were prepared in ethanol and stored at −20° C. […] Liposomal formulations based on AKG-UO-1 and 0-11769 ionizable cationic lipids (Table 5) were prepared by combining lipid mixtures of desired composition in 1 mL ethanol with 3 mL 6.25 mM sodium acetate, pH 5.0 at 6 mL/min on a NanoAssemblr (Precision Nanosystems). 3.6 mL of the mixture was retained, while the initial 0.35 mL of the mixture and final 0.05 mL were discarded. Ethanol was removed by buffer exchange into PBS, pH 7.4 by concentrating each liposome preparation using an Aminon-Ultra 4 centrifugal concentrator at 500 g for 10 min at 4° C. and diluting back to the original volume with PBS. This cycle was repeated multiple times until the ethanol concentration was <1%. Finally, liposomes were sterile filtered through 0.2 μm PES (Nalgene) syringe filters and size measured by a ZetaSizer (Malvern).
Aliquots of the liposomal formulations were stored at −80° C. and thawed before the experiment. A combined stock in water of 10% H2O2 (Sigma-Aldrich, cat #H1009) and 1 mM of Fe(III)Cl (Sigma-Aldrich, cat #372870) was freshly prepared prior to the treatment. To make 1% final concentration of H2O2 and 100 μM Fe(III)Cl, 10 μl of 10% H2O2/1 mM Fe(III)Cl stock was added to 90 μl of both liposomal formulations and individual lipids The liposomes and individual lipids were incubated with H2O2/Fe(III)Cl at 37° C. and then 5 μl from each sample was taken at different time points (0, 3, 24, 48 and 72 hours) and dissolved in 90 μl of MeOH for HPLC analysis. Degradation of the main lipid peak was analyzed using Thermo Scientific Vanquish Flex UHPLC occupied with Charged Aerosol Detector (CAD) and Thermo Scientific Accucore™ C18+ UHPLC column (L=50 mm, D=2.1 mm, Particle Size=1.5 μm).
The data are presented as a percentage of the main lipid peak measured at different time points relative to the lipid peak measured at time zero.

[4] = LNP zeta potential (ZetaSizer Pro); assay type: physicochemical; details: same LNPs; for Zeta Potential mV, pH 5: Table 4, pH 5; for Zeta Potential mV, pH 7: Table 4, pH 7

Particle Size (nm) ([1]; Table 3) | Polydispersity Index PDI ([1]; Table 3) | % Encapsulation ± SD [2] | stability under accelerated oxidation with hydrogen peroxide [3] | degradation after 48 hours of incubation with hydrogen peroxide [3] | % of parent lipid peak at time 0, 72 h ([3]; ICL lipid suspensions) | Particle Size (nm) ([1]; Table 4) | Particle Size (nm) Post-Freeze/Thaw [1] | Encapsulation Efficiency (%) [2] | Zeta Potential mV, pH 5 [4] | Zeta Potential mV, pH 7 [4] | % of parent lipid peak at time 0, 24 h ([3]; ICL lipid suspensions) | % of parent lipid peak at time 0, 48 h ([3]; ICL lipid suspensions) | % of parent lipid peak at time 0, 72 h ([3]; Liposome preparations) | SMILES | fold higher mCherry expression than KC3 (MutuDC1940 cells; relative to KC3 LNP) | fold higher mCherry expression than LNPs incorporating 0-11769 (MutuDC1940 cells; relative to 0-11769 LNP) | fold higher mCherry expression than KC2 (MutuDC1940 cells; relative to KC2 LNP)
91.6 nm | 0.03 | 88.9 ± 2.7% | dramatically superior stability |  |  |  |  |  |  |  |  |  |  | CCCCC/C=C\CCCC/C=C\CCCCCC1(CCCCC/C=C\CCCC/C=C\CCCCC)OC[C@H](CCCN(C)C)O1 [KC3-01, 3-((S)-2,2-di((6Z,12Z)-octadeca-6,12-dien-1-yl)-1,3-dioxolan-4-yl)-N,N-dimethylpropan-1-amine] | 3.4 fold |  | 
101.5 nm | 0.23 | 87.0 ± 2.3% |  | fully degraded | 0 ± 0.0% |  |  |  |  |  |  |  |  | CCCCC/C=C\C/C=C\CCCCCCCCC1(CCCCCCCC/C=C\C/C=C\CCCCC)OCC(CCCN(C)C)O1 (centres unmarked) [KC3, reference compound] |  |  | 
 |  |  |  |  |  | 77.6 nm | 111.5 nm | 64.9 ± 3.4% | 19.1 mV | 2.2 mV |  |  |  | CCCCCCCC/C=C\CCCCCCCC(=O)OC[C@H](CCN(C)C)OC(=O)CCCCCCC/C=C\CCCCCCCC [AKG-DM2-OA] |  |  | 
 |  |  |  |  |  | 69.8 nm | 68.2 nm | 83.4 ± 7.7% | 10.2 mV | −0.7 mV |  |  |  | CCCCCCCC/C=C\CCCCCCCC(=O)OC[C@H](CN(C)C)OC(=O)CCCCCCC/C=C\CCCCCCCC [DODAP, reference compound] |  |  | 
 |  |  | dramatically superior stability |  | 65 ± 2.5% | 98.0 nm | 122.6 nm | 75.4 ± 2.2% | 21.9 mV | 2.3 mV | 78 ± 0.6% | 74 ± 0.1% | 73±0.05% | CCCCC/C=C\CCCC/C=C\CCCCC(=O)OC[C@H](CCN(C)C)OC(=O)CCCC/C=C\CCCC/C=C\CCCCC [UO-1, (S)-4-(dimethylamino)butane-1,2-diyl (6Z,6′Z,12Z,12′Z)-bis(octadeca-6,12-dienoate)] |  | 4.2 fold | 
70.7 nm | 0.06 | 88.9 ± 1.6% | dramatically superior stability |  |  |  |  |  |  |  |  |  |  | CCCCC/C=C\CCCC/C=C\CCCCCC1(CCCCC/C=C\CCCC/C=C\CCCCC)OC[C@H](CCN(C)C)O1 [KC2-01, 2-((S)-2,2-di((6Z,12Z)-octadeca-6,12-dien-1-yl)-1,3-dioxolan-4-yl)-N,N-dimethylethan-1-amine] |  |  | 4.4 fold
 |  |  |  | fully degraded | 0.3 ± 0.1% | 83.0 nm | 89.6 nm | 87.5 ± 2.7% | 17.1 mV | 4.1 mV | 31 ± 0.9% | 1 ± 0.2% | 3.9±0.06% | CCCCC/C=C\C/C=C\CCCCCCCC(=O)OC[C@H](CCN(C)C)OC(=O)CCCCCCC/C=C\C/C=C\CCCCC [Compound O-11769, reference compound] |  |  | 
93.7 nm | 0.01 | 68.2 ± 3.7% |  | fully degraded | 0 ± 0.0% |  |  |  |  |  |  |  |  | CCCCC/C=C\C/C=C\CCCCCCCCC1(CCCCCCCC/C=C\C/C=C\CCCCC)OCC(CCN(C)C)O1 (centres unmarked) [KC2, reference compound] |  |  | 
 |  |  |  |  |  | 84.4 nm | 103.2 nm | 77.5 ± 0.9% | 28.0 mV | −0.9 mV |  |  |  | CCCCC/C=C\CCCC/C=C\CCCCC(=O)OC[C@H](CCN(CC)CC)OC(=O)CCCC/C=C\CCCC/C=C\CCCCC [AKG-UO1A, (S)-4-(diethylamino)butane-1,2-diyl (6Z,6′Z,12Z,12′Z)-bis(octadeca-6,12-dienoate)] |  |  | 
